Data as given in PMC12442245, “Activity Analysis of the P2X Receptor Antagonist PPADS against Signal Transducer and Activator of Transcription Proteins” (Chembiochem, 2025).

Key:
Assay type in all cases: binding
STAT3 = STAT3 (Homo sapiens, UniProt P40763); experiment: HTRF assay, STAT3; parameters: the endogenous full‐length proteins (between 748 and 793 amino acids for STAT3/4/5a/5b); endogenous in cells; host or cells: NK-92 cells (DSMZ), whole-cell lysate; conditions: STAT3 110 nM, without reducing agent, 1 h
Experimental: In addition, an HTRF assay was established for STAT3, one of the STAT proteins targeted to a lesser extent in FP assays, as a specificity control (Figure 1B,C). […] A Tb^3+‐cryptate fused to an anti‐6x‐His antibody was chosen as the long‐lived fluorescent donor, while the carboxyfluorescein linked to the respective STAT‐binding peptides served as the acceptor (Figure 2A). Emission was measured with a time delay of 60 μs after excitation, allowing any initial compound fluorescence to decay beforehand.
Homogenous time-resolved fluorescence (HTRF) assays for STAT3, STAT4, STAT5a and STAT5b were carried out using Cisbio Monoclonal Antibody Anti-6His-Tb Gold as the fluorescence donor (Perkin Elmer) and the corresponding CF-labelled binding peptide as the acceptor. Protein at 110 nM (STAT3), 30 nM (STAT4), 110 nM (STAT 5a) or 80 nM (STAT5b) was combined with terbium-labelled antibody at the recommended concentration, 150 nM CF-labelled peptide and compound as indicated, and incubated at room temperature for 1 h. […] Fluorescence /luminescence was measured in Proxiplate 384-well plates (Perkin Elmer), using a 340 nm excitation filter with 520 nm and 620 nm emission filters, with 60 µs time delay. The average reading from 3 wells was obtained. After subtraction of the blank (buffer only) from each reading, the ratio of the 520 nm / 620 nm readings was calculated. […]

STAT5b [1] = biological target: T1, STAT5b (Homo sapiens, UniProt P51692); experiment: Competitive fluorescence polarization (FP) assay, STAT5b; conditions: no reducing agent, 1 h
T1 sequence (P51692 1-787): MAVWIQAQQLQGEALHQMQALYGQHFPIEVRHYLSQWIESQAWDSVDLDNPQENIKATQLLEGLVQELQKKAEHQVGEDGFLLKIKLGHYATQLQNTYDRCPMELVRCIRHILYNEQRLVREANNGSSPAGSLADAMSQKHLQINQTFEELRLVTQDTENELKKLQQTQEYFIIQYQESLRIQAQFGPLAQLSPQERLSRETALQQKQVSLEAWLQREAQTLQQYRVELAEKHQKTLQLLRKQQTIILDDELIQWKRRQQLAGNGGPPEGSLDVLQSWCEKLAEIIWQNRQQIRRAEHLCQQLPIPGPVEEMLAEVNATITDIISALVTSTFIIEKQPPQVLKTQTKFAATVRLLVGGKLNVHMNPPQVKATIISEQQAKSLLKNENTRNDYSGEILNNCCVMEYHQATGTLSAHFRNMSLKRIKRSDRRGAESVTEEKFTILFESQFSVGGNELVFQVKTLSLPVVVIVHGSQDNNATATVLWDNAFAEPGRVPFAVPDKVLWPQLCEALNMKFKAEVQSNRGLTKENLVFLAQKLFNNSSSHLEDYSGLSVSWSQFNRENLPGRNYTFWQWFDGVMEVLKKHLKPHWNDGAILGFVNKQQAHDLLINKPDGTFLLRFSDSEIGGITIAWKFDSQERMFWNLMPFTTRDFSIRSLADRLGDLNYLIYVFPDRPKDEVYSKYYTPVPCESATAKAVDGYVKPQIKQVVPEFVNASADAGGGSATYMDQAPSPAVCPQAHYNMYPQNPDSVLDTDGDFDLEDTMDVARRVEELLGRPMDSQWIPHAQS
Source text: Screening of chemical libraries
Screening of chemical libraries comprising approximately 5000 known bioactive compounds in fluorescence polarization-based assays against phosphorylation-dependent protein-protein interaction domains, including STAT proteins, has been described.[1] PPADS was purchased from Sigma-Aldrich, and iso-PPADS from Bio-Techne.
(§1) Fluorescence polarization assays
(§2) Competitive fluorescence polarization (FP) assays for STAT1,[2] STAT3,[3] STAT4,[4] STAT5a,[5] STAT5b[6] and STAT6[1] were performed as previously described. Briefly, peptide binding to proteins was analyzed using the following carboxyfluorescein (CF) -labelled pepti des at a concentration of 10 nM: STAT1: 5-CF-GpYDKPHVL-OH, STAT3: 5-CF-GpYLPQTV -NH2, STAT4: 5-CF-GpYLPQNID-OH, STAT5a and STAT5b: 5-CF-GpYLVLDKW-OH, STAT6: 5- […]
CFGp[…]-OH. Proteins were used at a final concentration representing the approximate Kd value for binding of the corresponding peptide to the protein, namely 65 nM for STAT1, 65 nM for STAT3, 35 nM for STAT4, 125 nM for STAT5a, 65 nM for STAT5b and 75 nM for STAT6. […] FP was measured using an Infinite F500 plate reader (Tecan) and measurements were converted into percent inhibition according to the binding curve equation. Curves were plotted and best fits calculated using OriginPro […]

STAT5b [2] = biological target: T1, STAT5b; experiment: HTRF assay, STAT5b; conditions: STAT5b 80 nM, without reducing agent, 1 h
Source text: The azo dyes PPADS and iso‐PPADS have a deep red color in aqueous solution. […] In order to exclude this possibility, we established homogeneous time‐resolved fluorescence resonance energy transfer (HTRF) assays to confirm the degree of binding between STAT4, STAT5a, and STAT5b and the respective 5‐carboxyfluorescein‐labeled binding peptides used in the FP assay. In addition, an HTRF assay was established for STAT3, one of the STAT proteins targeted to a lesser extent in FP assays, as a specificity control (Figure 1B,C). The STAT protein constructs each contain a 6x‐His‐tag.^[ [15], [16], [17], [22] ^] A Tb^3+‐cryptate fused to an anti‐6x‐His antibody was chosen as the long‐lived fluorescent donor, while the carboxyfluorescein linked to the respective STAT‐binding peptides served as the acceptor (Figure 2A). Emission was measured with a time delay of 60 μs after excitation, allowing any initial compound fluorescence to decay beforehand. […]
Screening of chemical libraries comprising approximately 5000 known bioactive compounds in fluorescence polarization-based assays against phosphorylation-dependent protein-protein interaction domains, including STAT proteins, has been described.[1] […]
as §1
as §2, with “STAT3,[3] STAT4,[4] STAT5a,[5] STAT5b[6] and STAT6[1] were performed as previously described.” left out
CFGp[…]-OH. […] FP was measured using an Infinite F500 plate reader (Tecan) and measurements were converted into percent inhibition according to the binding curve equation. Curves were plotted and best fits calculated using OriginPro […]
Homogenous time-resolved fluorescence (HTRF) assays for STAT3, STAT4, STAT5a and STAT5b were carried out using Cisbio Monoclonal Antibody Anti-6His-Tb Gold as the fluorescence donor (Perkin Elmer) and the corresponding CF-labelled binding peptide as the acceptor. […] The average reading from 3 wells was obtained. […]

STAT3, sequence (P40763 whole entry, species assumed): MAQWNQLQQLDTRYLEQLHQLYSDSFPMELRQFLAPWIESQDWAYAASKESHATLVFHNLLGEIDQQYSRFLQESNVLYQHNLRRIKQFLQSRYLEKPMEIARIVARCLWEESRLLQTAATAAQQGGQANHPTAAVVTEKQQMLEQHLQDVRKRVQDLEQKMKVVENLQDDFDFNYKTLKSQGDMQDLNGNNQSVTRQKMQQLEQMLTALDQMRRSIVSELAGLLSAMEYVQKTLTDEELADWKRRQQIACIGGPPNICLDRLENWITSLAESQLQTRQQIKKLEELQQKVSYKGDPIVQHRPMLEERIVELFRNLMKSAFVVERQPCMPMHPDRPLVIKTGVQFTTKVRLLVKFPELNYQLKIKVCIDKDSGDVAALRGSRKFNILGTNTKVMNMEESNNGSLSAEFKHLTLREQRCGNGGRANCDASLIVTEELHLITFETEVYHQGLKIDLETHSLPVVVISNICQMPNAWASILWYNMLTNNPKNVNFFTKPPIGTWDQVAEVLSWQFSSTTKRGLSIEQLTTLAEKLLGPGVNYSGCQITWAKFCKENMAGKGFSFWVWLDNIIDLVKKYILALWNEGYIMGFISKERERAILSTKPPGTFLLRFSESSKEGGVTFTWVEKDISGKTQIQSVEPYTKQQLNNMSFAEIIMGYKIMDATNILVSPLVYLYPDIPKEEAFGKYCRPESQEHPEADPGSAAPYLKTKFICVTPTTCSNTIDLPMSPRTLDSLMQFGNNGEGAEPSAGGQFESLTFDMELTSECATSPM

Row | Structure (SMILES) | IC50 (STAT3) [nM] | IC50 (STAT5b [1]) [nM] | IC50 (STAT5b [2]) [nM]
1 | Cc1nc(/N=N/c2ccc(S(=O)(=O)O)cc2S(=O)(=O)O)c(COP(=O)(O)O)c(C=O)c1O [PPADS, pyridoxalphosphate‐6‐azophenyl‐2',4'‐disulfonic acid] | 29600 ± 4000 | 2000 ± 300 | 1220 ± 270
2 | Cc1nc(/N=N/c2cc(S(=O)(=O)O)ccc2S(=O)(=O)O)c(COP(=O)(O)O)c(C=O)c1O [iso‐PPADS] | 31900 ± 4000 | 1900 ± 100 | 800 ± 100
